Inconclusive results are not listed.

The test system of the test is S. cerevisiae PHO84-LacZ reporter, HDAC inhibition. Briefly: HDAC inhibitors via yeast reporter, S. cerevisiae, PHO84-LacZ (AID 1582).

Usually EC50 stands for the concentration needed to bring the measured effect to its halfway point. Take `c1ccc2[nH]c(-c3cscn3)nc2c1`: the EC50 was 148 µM.
With `N#Cc1ccc2c(c1)N(CCCN1CCC(O)CC1)c1ccccc1S2`, the EC50 was 148 µM.
Then `NCCCCN`, with 125 µM; and `CN(Cc1cnc2nc(N)nc(N)c2n1)c1ccc(C(=O)N[C@@H](CCC(=O)O)C(=O)O)cc1`, with 78 µM.
To `COc1cc(C)c2c(=O)cc(-c3ccccc3)oc2c1` belongs 60 µM.
To `CCC(C)[C@H]1O[C@]2(C=C[C@@H]1C)C[C@@H]1C[C@@H](C/C=C(\C)[C@@H](OC3C[C@H](OC)C(O[C@H]4C[C@H](OC)[C@@H](O)[C@H](C)O4)[C@H](C)O3)[C@@H](C)/C=C/C=C3\CO[C@@H]4[C@H](O)C(C)=C[C@@H](C(=O)O1)[C@]34O)O2` (some centres not stated) belongs 66 µM; to `CC(C(=O)O)c1ccc(N2Cc3ccccc3C2=O)cc1` (configuration not stated), 50 µM.

The values above are taken from PubChem BioAssay AID1582.
